Measurements reported in patent publication US20260231590A1, “AROMATIC COMPOUND, ORGANIC SEMICONDUCTOR LAYER AND ORGANIC THIN FILM TRANSISTOR” (TOSOH CORPORATION, priority 2023, published 2026).

Legend:
Assay type in all cases: physicochemical
[1] = Solution for forming an organic semiconductor layer: dissolved in toluene at 50° C., state after cooling to 25° C.; conditions: 0.44 mg in 434 mg of toluene, heated to 50° C., allowed to cool at room temperature (25° C.)
[2] = as above; conditions: 0.20% by weight in toluene, dissolved at 50° C., after 10 hours at 25° C.
Description: In air, 1.74 mg of the 2,8-di(2-cyclohexylethyl)anthra[1,2-b:5,6-b′]dithiophene synthesized in Example 2 (compound 2) and 868 mg of toluene (FUJIFILM Wako Pure Chemical Industries Corporation, pure grade) were added to a 10-ml sample tube. After dissolution by heating to 50° C., the solution was allowed to cool at room temperature (25° C.), whereby a solution for forming an organic semiconductor layer was prepared. […] (the concentration of compound 2 was 0.20% by weight), confirming that compound 2 is a compound suitable for film formation by drop casting and inkjet printing.

[3] = Evaluation of solubility in organic solvents; conditions: room temperature (25° C.), complete dissolution by visual observation
Description: Toluene and n-octane were each added to predetermined amounts of the aromatic compounds obtained in Examples 1, 4, 5, 6, 7, 8, 9, 12, 13, 14, 15, 18, 19, 20, 22 and 23 to give compositions for film formation. The weight of each organic solvent required to completely dissolve the aromatic compound at room temperature (25° C.) was measured, and solubility (% by weight) was calculated. The determination of the point of complete dissolution was confirmed by visual observation.

SMILES | state of solution for forming an organic semiconductor layer [1] | state of solution for forming an organic semiconductor layer [2] | Solubility [% by weight] n-octane [3] [% by weight] | Solubility [% by weight] Toluene [3] [% by weight]
c1ccc(-c2ccc3c(c2)sc2c4ccc(-c5ccccc5)cc4sc32)cc1 [2,7-diphenyl[1]benzothieno[3,2-b][1]benzothiophene] | solid precipitation observed | – | – | –
CCCCCCCCc1cc2ccc3cc4c(ccc5cc(CCCCCCCC)sc54)cc3c2s1 [2,8-dioctylanthra[1,2-b:5,6-b′]dithiophene, reference compound] | – | remained in solution form | – | –
c1cc2ccc3cc4c(ccc5cc(CCC6CCCCC6)sc54)cc3c2s1 [Compound 1, 2-(2-Cyclohexylethyl)anthra[1,2-b:5,6-b′]dithiophene] | – | – | ≥0.1 | ≥1.0
c1cc2cc(CCC3CCCCC3)sc2c2cc3ccc4cc(CCC5CCCCC5)sc4c3cc12 [Compound 2, 2,8-Di(2-cyclohexylethyl)anthra[1,2-b:5,6-b′]dithiophene] | – | remained in solution form | – | –
CCCc1cc2ccc3cc4c(ccc5cc(CCC6CCCCC6)sc54)cc3c2s1 [Compound 4, 2-(2-Cyclohexylethyl)-8-propylanthra[1,2-b:5,6-b′]dithiophene] | – | – | ≥0.5 | ≥1.0
CC(C)Cc1cc2ccc3cc4c(ccc5cc(CCC6CCCCC6)sc54)cc3c2s1 [Compound 5, 2-(2-Cyclohexylethyl)-8-isobutylanthra[1,2-b:5,6-b′]dithiophene] | – | – | ≥0.2 | ≥1.0
CCCCc1cc2ccc3cc4c(ccc5cc(CCC6CCCCC6)sc54)cc3c2s1 [Compound 6, 2-Butyl-8-(2-cyclohexylethyl)anthra[1,2-b:5,6-b′]dithiophene] | – | – | ≥0.5 | ≥1.0
CCCCCc1cc2ccc3cc4c(ccc5cc(CCC6CCCCC6)sc54)cc3c2s1 [Compound 7, 2-(2-Cyclohexylethyl)-8-pentylanthra[1,2-b:5,6-b′]dithiophene] | – | – | ≥0.2 | ≥1.0
CCCCCCc1cc2ccc3cc4c(ccc5cc(CCC6CCCCC6)sc54)cc3c2s1 [Compound 8, 2-(2-Cyclohexylethyl)-8-hexylanthra[1,2-b:5,6-b′]dithiophene] | – | remained in solution form | ≥0.5 | ≥1.0
c1cc2ccc3cc4c(ccc5cc(CCC6CCCC6)sc54)cc3c2s1 [Compound 9, 2-(2-Cyclopentylethyl) anthra[1,2-b:5,6-b′]dithiophene] | – | – | ≥1.0 | ≥1.0

The remaining lines, values ahead:

state of solution for forming an organic semiconductor layer [1] | state of solution for forming an organic semiconductor layer [2] | Solubility [% by weight] n-octane [3] [% by weight] | Solubility [% by weight] Toluene [3] [% by weight] | SMILES
– | remained in solution form | – | – | c1cc2cc(CCC3CCCC3)sc2c2cc3ccc4cc(CCC5CCCC5)sc4c3cc12 [Compound 10, 2,8-Di(2-cyclopentylethyl)anthra[1,2-b:5,6-b′]dithiophene]
– | remained in solution form | ≥0.5 | ≥1.0 | CC(C)Cc1cc2ccc3cc4c(ccc5cc(CCC6CCCC6)sc54)cc3c2s1 [Compound 12, 2-(2-Cyclopentylethyl)-8-isobutylanthra[1,2-b:5,6-b′]dithiophene]
– | remained in solution form | ≥0.5 | ≥1.0 | CCCCCCc1cc2ccc3cc4c(ccc5cc(CCC6CCCC6)sc54)cc3c2s1 [Compound 13, 2-(2-Cyclopentylethyl)-8-hexylanthra[1,2-b:5,6-b′]dithiophene]
– | remained in solution form | ≥1.0 | ≥1.0 | c1cc2cc(CCC3CCCCC3)sc2c2cc3ccc4cc(CCC5CCCC5)sc4c3cc12 [Compound 14, 2-(2-Cyclohexylethyl)-8-(2-cyclopentylethyl)anthra[1,2-b:5,6-b′]dithiophene]
– | – | ≥0.5 | ≥1.0 | c1cc2ccc3cc4c(ccc5cc(CCCC6CCCCC6)sc54)cc3c2s1 [Compound 15, 2-(3-Cyclohexylpropyl)anthra[1,2-b:5,6-b′]dithiophene]
– | remained in solution form | ≥0.2 | ≥1.0 | CCCCCCc1cc2ccc3cc4c(ccc5cc(CCCC6CCCCC6)sc54)cc3c2s1 [Compound 18, 2-(3-Cyclohexylpropyl)-8-hexylanthra[1,2-b:5,6-b′]dithiophene]
– | – | ≥0.5 | ≥1.0 | c1cc2ccc3c(c2s1)-c1ccc2cc(CCC4CCCCC4)sc2c1-3 [Compound 19, 2-(2-Cyclohexylethyl) biphenyleno[1,2-b:5,6-b′]dithiophene]
– | remained in solution form | ≥0.5 | ≥1.0 | c1cc2cc(CCC3CCCCC3)sc2c2c1-c1c-2ccc2cc(CCC3CCCCC3)sc12 [Compound 20, 2,7-Bis(2-cyclohexylethyl)biphenyleno[1,2-b:5,6-b′]dithiophene]
– | – | ≥0.2 | ≥1.0 | c1cc2cc(CCC3CCCC3)sc2c2c1-c1c-2ccc2cc(CCC3CCCC3)sc12 [Compound 23, 2,7-Bis(2-cyclopentylethyl)biphenyleno[1,2-b:5,6-b′]dithiophene]
– | remained in solution form | – | – | CCCCCc1cc2ccc3cc4c(ccc5cc(CCCC6CCCCC6)sc54)cc3c2s1 [Compound 25, 2-(3-Cyclohexylpropyl)-8-pentylanthra[1,2-b:5,6-b′]dithiophene]
– | remained in solution form | – | – | CCCCCCc1cc2ccc3cc4c(ccc5cc(CCCC6CCCC6)sc54)cc3c2s1 [Compound 31, 2-(3-Cyclopentylpropyl)-8-hexylanthra[1,2-b:5,6-b′]dithiophene]
– | remained in solution form | – | – | CCCCCCCCc1ccc(CCc2cc3ccc4cc5c(ccc6cc(CCC7CCCCC7)sc65)cc4c3s2)cc1 [Compound 40, 2-(2-Cyclohexylethyl)-8-(4-octylphenylethyl)anthra[1,2-b:5,6-b′]dithiophene]
